Test results published in patent US8017596B2, “Phosphonates useful as modulators of T-γ-9-δ-2 activity” (Innate Pharma, S.A., priority 2001, dated 2011).
One block for each compound: values may come before it.

Legend:
[1] = tested on: Vγ9/Vδ2 lymphocytes; experiment: Vγ9/Vδ2 lymphocyte expansion (flow cytometry immunofluorescence, anti-CD3 / anti-Vγ9); assay type: cell-based, human; settings: PBMC after 5 days in culture, 100 μM; FIG. 2E-2L
Procedure: FIGS. 2A-2L. In order to verify selectivity with respect to Vγ9/Vδ2 lymphocytes of molecule activating potential, PBMCs, were cultured and analysed after 5 days of culture in the presence of various molecules by flow cytometry immunofluorescence. For this, the cells are retrieved, washed in PBS and then incubated in the presence of human anti-CD3 monoclonal antibodies conjugated with fluoroscein (FITC, FL1) and human anti-Vγ9 coupled with biotin and then detected with Streptavidine-phycoerythrin conjugate (ST-PE, FL2). The markings are produced by incubating for 30 minutes with 0.5 μg of each antibody per million cells. The analysis is performed after washing on a FACScalibur-SORT cell analyser-sorter cytofluorimeter (Becton Dickinson, Mountain View, CA). FIG. 2A gives the profile (size FSC and granularity SSC) of the cells studied. […] FIGS. 2D to 2L show a PBMC after 5 days in culture in the presence of the molecule tested. FIG. 2D: cells stimulated with 1μg/ml phytohaemagglutinin A (PHA). FIG. 2E: cells stimulated with 100μM isoprenylpyrophosphate (IPP). FIG. 2F: cells stimulated with 100μM 1-pyrophosphono-4-methylpenta-1,3-diene. FIG. 2G: cells stimulated with 100μM (E) 1-pyrophosphono-penta-1,3-diene. FIG. 2H: cells stimulated with 100μM (E) 1-pyrophosphono-buta-1,3-diene, FIG. 2I: cells stimulated with 100μM 5-pyrophosphono-2-methylpent-2-ene. FIG. 2J: cells stimulated with 100μM α,γ-di-[4-methylpent-4-enyl]-triphosphonate. FIG. 2K: cells stimulated with 100μM 5-pyrophosphono-2methylpentene. FIG. 2L: cells stimulated with 100μM 5-triphosphono-2-methylpentene.
In order to verify selectivity with respect to Vγ9/Vδ2 lymphocytes of the molecule activating potential, PBMCs, cultured under the conditions described above were analysed after 5 days of culture in the presence of various molecules by flow cytometry immunofluorescence. For this, the cells are retrieved, washed in PBS and then incubated in the presence of human anti-CD3 monoclonal antibodies conjugated with fluoroscein (FITC, FL1) and human anti-Vγ9 coupled with biotin and then detected with Streptavidine-phycoerythrin conjugate (ST-PE, FL2). The markings are produced by incubating for 30 minutes with 0.5 μg of each antibody per million cells. The analysis is performed after washing on a FACScalibur-SORT cell analyser-sorter cytofluorimeter (Becton Dickinson, Mountain View, Calif.). The results are processed using Cellquest software.
FIG. 2A gives the profile (size FSC and granularity SSC) of the cells studied. […] FIGS. 2D to 2L show a PBMC after 5 days in culture in the presence of the molecule tested.

[2] = tested on: Human peripheral blood lymphocytes (PBMC); experiment: Human peripheral blood T lymphocyte proliferation activation (3H-thymidine incorporation, stimulation index); settings: concentrations 0.001 μM to 500 μM, 4 days then 24 hours 3H-TdR, FIG. 1
[3] = Stability in human AB serum followed by phosphorus 31 NMR; settings: three days of incubation; for degradation of the molecule after incubation in serum: human AB serum, 31P NMR
Procedure: To 0.5 ml of each solution, 500 μl of human AB serum was added and the mixture were left to incubate. After three days of incubation, the degradation of the molecule is measured by phosphorus 31 NMR.

[4] = tested on: human γ9δ2 T lymphocytes; settings: in vitro; literature (Tanaka et al. 1994; Kunzmann et al. 2000); cited from earlier work
[5] = 0.1 mole/liter in D2O, 0.5 ml + 500 μl human AB serum

Compound: 5-triphosphono-2-methylpentene [Compound M7]
Vγ9/Vδ2 T cell population in stimulated cultures [1]: high increase
inducing T lymphocyte proliferation (proliferation index) compared with IPP [2]: more effective than IPP

integral of the 31P NMR peak of the intact molecule [3, 5]: 1.2
degradation of the molecule after incubation in serum [3]: significant degradation
Compound: C=C(C)CCO[P@@](=O)(O)OP(=O)(O)O [IPP, isopentenyl pyrophosphate, reference compound]

Compound: NCCCC(O)(P(=O)(O)O)P(=O)(O)O [alendronate]
γ9δ2 T lymphocyte proliferation [4]: stimulants of γ9δ2 T lymphocyte proliferation

Compound: CCCCCN(C)CCC(O)(P(=O)(O)O)P(=O)(O)O [ibandronate]
γ9δ2 T lymphocyte proliferation [4]: stimulants of γ9δ2 T lymphocyte proliferation

Compound: CCOP(=O)(O)O [monoethylphosphate]
γ9δ2 T lymphocyte proliferation [4]: induce in vitro, the proliferation of γ9δ2 T lymphocytes

Compound: isopentenyl pyrophosphonate [IPPN]
integral of the 31P NMR peak of the degradation product (isoprenyl phosphate / isoprenyl phosphonate) [3, 5]: 1.1
integral of the 31P NMR peak of the intact molecule [3, 5]: 96
degradation of the molecule after incubation in serum [3]: changed negligibly

Compound: 5-pyrophosphono-2-methylpentene [Compound M6]
Vγ9/Vδ2 T cell population in stimulated cultures [1]: high increase
inducing T lymphocyte proliferation (proliferation index) compared with IPP [2]: more effective than IPP

Compound: (E) 1-pyrophosphono-4-methylpenta-1,3-diene [Compound M1]
Vγ9/Vδ2 T cell population in stimulated cultures [1]: high increase
inducing T lymphocyte proliferation (proliferation index) compared with IPP [2]: more effective than IPP

Compound: NCCC(O)(P(=O)(O)O)P(=O)(O)O [pamidronate]
γ9δ2 T lymphocyte proliferation [4]: stimulants of γ9δ2 T lymphocyte proliferation

Compound: α,γ-di-[4-methylpent-4-enyl]-triphosphonate [Compound M5]
Vγ9/Vδ2 T cell population in stimulated cultures [1]: high increase
inducing T lymphocyte proliferation (proliferation index) compared with IPP [2]: more effective than IPP

Compound: 5-pyrophosphono-2-methylpent-2-ene [Compound M4]
Vγ9/Vδ2 T cell population in stimulated cultures [1]: high increase
inducing T lymphocyte proliferation (proliferation index) compared with IPP [2]: more effective than IPP

Compound: (E) 1-pyrophosphono-penta-1,3-diene [Compound M2]
Vγ9/Vδ2 T cell population in stimulated cultures [1]: high increase
inducing T lymphocyte proliferation (proliferation index) compared with IPP [2]: more effective than IPP

Compound: (E) 1-pyrophosphono-buta-1,3-diene [Compound M3]
Vγ9/Vδ2 T cell population in stimulated cultures [1]: high increase
inducing T lymphocyte proliferation (proliferation index) compared with IPP [2]: more effective than IPP
